Source: patent EP3246028A1, “QUINOLINE COMPOUNDS FOR INCREASING INSULINE RELEASE” (Max-Planck-Gesellschaft zur Förderung der Wissenschaften …, priority 2016, dated 2017)

The compounds below were run on RIN-5AH insulinoma beta cell line (assay: Insulin secretion (insulin ELISA of supernatants)). Settings: RIN-5AH cells, 5 µM, treated in medium for 2 hours; read-out: AV_INSULIN (percent increase in insulin secretion over a DMSO control).
Format: cell-based
Method: Culture medium and supplements were purchased from Life Technologies. The RIN-5AH insulinoma beta cell line was cultured in RPMI 1640 supplemented with 10% FBS, 2 mM glutamine. All culture media contained 1x penicillin-streptomycin. Cells were grown on 15 cm culture plates at 37°C under 5% CO2 in high humidity atmosphere.
To determine the insulin level from the supernatants insulin ELISA kits from Millipore or Mercodia were used. RIN-5AH cells were seeded in 96 well or 12 well plates and grown overnight. RIN-5AH cells never reached more than 80% confluency before treatment. Cells were washed once with PBS before treatment. Cells were treated in medium for 2 hours and with 5 µM of insulin secretagogue according to the present invention, if not otherwise indicated. After treatment 100ul of supernatant was taken. Samples were assayed immediately or stored at -20°C until measurement. Dilutions were made if necessary and ELISA was subsequently performed according to the user's manual. Insulin secretion was normalized to cell number by MTT assay or to total protein amount by BCA assay (ThermoFisher Scientific, 23225). Plates were read on BioTrek Elx800 absorbance reader at 450 nm.
RIN-5AH beta cells were treated with 5 µM compound 12 or 50 µM quinidine or chloroquine according to the above described protocol (Example 1).

SMILES	activation at 5 µM [%]
CN(C)Cc1cc(Nc2cc(C#N)nc3cc(F)ccc23)c(Cl)cc1Cl [Compound 23, 4-[2,4-dichloro-5-(dimethylaminomethyl)anilino]-7-fluoro-quinoline-2-carbonitrile]	57
COc1cc2nccc(-c3cccc(Nc4cc(C(N)=O)nc5c(F)cccc45)c3)c2cc1OC [Compound 27, 4-[3-(6,7-dimethoxy-4-quinolyl)anilino]-8-fluoro-quinoline-2-carboxamide]	46
CN(C)C(=O)c1cc(Nc2cc(C#N)nc3c(F)cccc23)c(Cl)cc1Cl [Compound 25, 2,4-dichloro-5-[(2-cyano-8-fluoro-4-quinolyl)amino]-N,N-dimethyl-benzamide]	48
COc1cc(Nc2cc(C#N)nc3c(F)cccc23)c(Cl)cc1Cl [Compound 19, 4-(2,4-dichloro-5-methoxy-anilino)-8-fluoro-quinoline-2-carbonitrile]	70
COc1cc(Nc2cc(C#N)nc3c(Br)cccc23)c(Cl)cc1Cl [Compound 3, 8-bromo-4-(2,4-dichloro-5-methoxy-anilino)quinoline-2-carbonitrile]	116
CN(C)C(=O)c1cc(Nc2cc(C#N)nc3c(Br)cccc23)c(Cl)cc1Cl [Compound 2, 5-[(8-bromo-2-cyano-4-quinolyl)amino]-2,4-dichloro-N,N-dimethyl-benzamide]	125
COc1cc2nccc(-c3cccc(Nc4cc(C#N)nc5c(F)cccc45)c3)c2cc1OC [Compound 24, 4-[3-(6,7-dimethoxy-4-quinolyl)anilino]-8-fluoro-quinoline-2-carbonitrile]	57
N#Cc1cc(-c2cccc(N)c2)c2ccc(F)cc2n1 [Compound 1, 4-(3-aminophenyl)-7-fluoro-quinoline-2-carbonitrile]	151
N#Cc1cc(-c2cccc(NC(=O)c3cccc(C(F)(F)F)c3)c2)c2ccc(F)cc2n1 [Compound 11, N-[3-(2-cyano-7-fluoro-4-quinolyl)phenyl]-3-(trifluoromethyl)benzamide]	86
COc1ccc2nc(C#N)cc(Nc3cc(OC)c(Cl)cc3Cl)c2c1 [Compound 15, 4-(2,4-dichloro-5-methoxy-anilino)-6-methoxy-quinoline-2-carbonitrile]	78
COc1c(F)ccc2c(Nc3ccc(C)c(C)c3)cc(C#N)nc12 [Compound 16, 4-(3,4-dimethylanilino)-7-fluoro-8-methoxy-quinoline-2-carbonitrile]	78
COc1cc2c(Nc3cc(OC)c(Cl)cc3Cl)cc(C#N)nc2cc1F [Compound 75, 4-(2,4-dichloro-5-methoxy-anilino)-7-fluoro-6-methoxy-quinoline-2-carbonitrile]	116
COc1cc(Nc2cc(C#N)nc3ccc(F)cc23)c(Cl)cc1Cl [Compound 10, 4-(2,4-dichloro-5-methoxy-anilino)-6-fluoro-quinoline-2-carbonitrile]	89
CN(C)C(=O)c1cc(Nc2cc(C#N)nc3cc(F)ccc23)c(Cl)cc1Cl [Compound 28, 2,4-dichloro-5-[(2-cyano-7-fluoro-4-quinolyl)amino]-N,N-dimethyl-benzamide]	45
COc1cc2c(Nc3c(Cl)cccc3Cl)cc(C#N)nc2cc1F [Compound 21, 4-(2,6-dichloroanilino)-7-fluoro-6-methoxy-quinoline-2-carbonitrile]	65
N#Cc1cc(Nc2ccc(F)c(Cl)c2)c2cc(Cl)cc(Cl)c2n1 [Compound 14, 6,8-dichloro-4-(3-chloro-4-fluoro-anilino)quinoline-2-carbonitrile]	78
N#Cc1cc(Nc2c(Cl)cccc2Cl)c2cc(F)ccc2n1 [Compound 29, 4-(2,6-dichloroanilino)-6-fluoro-quinoline-2-carbonitrile]	41
COc1cc2c(Nc3ccc(Cl)cc3Cl)c(C#N)cnc2cc1OCCCN [Compound 20, 7-(3-aminopropoxy)-4-(2,4-dichloroanilino)-6-methoxy-quinoline-3-carbonitrile]	67
